# From patent publication US12180226B2, “Spirotricycle RIPK1 inhibitors and methods of uses thereof” (Merck Sharp & Dohme LLC, priority 2021, dated 2024)
# Where a name gives a salt, the structure may show the parent alone.
# Target: RIPK1 (recombinant GST-RIPK1 kinase domain, residues 1-327) (Homo sapiens (Human), UniProt Q13546)
# Test: RIPK1-ADP-Glo Enzymatic Assay
# Type: biochemical
# Conditions: ADP-Glo; 25 nM GST-RIPK1, 300 μM ATP; assay lower limit ~25 nM; read-out: RIPK1 V0 Ec50
# How it was run: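 ADP-Glo luminescence read after 150 min kinase reaction (300 μM ATP, 3 μM dephosphorylated MBP) using 25 nM Sf21-made GST-kinase domain (1-327), preincubated 30 min with compound. HEPES pH 7.3, 1% DMSO; ten-point 1:3 series from 100000 nM, EC50 via four-parameter sigmoidal regression.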
# RIPK1 (recombinant GST-RIPK1 kinase domain, residues 1-327), sequence (Q13546 1-327): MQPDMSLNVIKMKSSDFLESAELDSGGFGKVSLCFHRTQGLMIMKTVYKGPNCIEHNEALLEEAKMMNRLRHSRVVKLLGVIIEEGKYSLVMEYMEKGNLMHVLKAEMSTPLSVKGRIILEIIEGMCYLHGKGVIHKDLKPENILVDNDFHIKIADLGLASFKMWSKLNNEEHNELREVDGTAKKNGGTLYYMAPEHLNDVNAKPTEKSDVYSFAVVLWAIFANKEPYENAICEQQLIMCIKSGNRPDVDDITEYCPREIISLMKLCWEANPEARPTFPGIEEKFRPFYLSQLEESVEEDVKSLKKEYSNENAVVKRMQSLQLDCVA
row,Compound,EC50 [nM]
1,"O=C(c1ccc(C(F)F)nc1)N1CCC2(CC1)O[C@@H]1CC[C@@H](c3cc(F)cc(F)c3)N1C2=O [Example 6.66, (5′S,7a′R)-1-[6-(difluoromethyl)pyr-idine-3-carbonyl]-5′-(3,5-difluorophenyl)-tetrahydro-3′H-spiro [piperidine-4,2′-pyrrolo[2,1-b][1,3]-oxazol]-3′-one]",311
2,"N#Cc1ccc(N2CCC3(CC2)O[C@@H]2CC[C@@H](c4cc(F)cc(F)c4)N2C3=O)n2nccc12 [Example 14.1, 7-((5′S,7a′R)-5′-(3,5-difluorophenyl)-3′-oxotetrahydro-3′H-spiro [piperidine-4,2′-pyrrolo [2,1-b]oxazol]-1-yl)pyrazolo[1,5-a]pyridine-4-carbonitrile, TFA]",< 25
3,"O=C1N2[C@@H](CC[C@H]2c2cc(F)cc(F)c2)OC12CN(c1ccnc3ccnn13)C2 [Example 4.134, (5′S,7a′R)-5′-(3,5-difluorophenyl)-1-(pyrazolo[1,5-a]pyrimidin-7-yl)tetrahydro-3′H-spiro[azetidine-3,2′-pyrrolo[2,1-b] [1,3]oxazol]-3′-one]",27.3
4,"O=C(c1cc(F)ccc1F)N1CC2(C1)O[C@@H]1CC[C@@H](c3cc(F)cc(F)c3)N1C2=O [Example 1.20, (5′S,7a′R)-1-(2,5-difluorobenzoyl)-5′-(3,5-difluorophenyl)tetrahydro-3′H-spiro[azetidine-3,2′-pyrrolo[2,1-b]oxazol]-3′-one]",41.7
5,"CCc1ccc(N2CCC3(CC2)O[C@@H]2CC[C@@H](c4ccccc4)N2C3=O)n2ncnc12 [Example 4.221, (5′S,7a′R)-1-(8-ethyl[1,2,4]triazolo[1,5-a]pyridin-5-yl)-5′-phenyltetrahydro-3′H-spiro[piperidine-4,2′-pyrrolo[2,1-b] [1,3]oxazol]-3′-one]",< 25
6,"O=C(c1ccccc1F)N1CCC2(CC1)O[C@@H]1CC[C@@H](c3ccccc3F)N1C2=O [Example 1.16, (5′S,7a′R)-1-(2-fluorobenzoyl)-5′-(2-fluorophenyl)tetrahydro-3′H-spiro[piperidine-4,2′-pyrrolo[2,1-b]oxazol]-3′-one]",< 25
7,"O=C1N2[C@@H](CC[C@H]2c2ccccc2)OC12CCN(c1ncc(F)cc1C(F)F)CC2 [Example 11.25, (5′S,7a′R)-1-[3-(difluoromethyl)-5-fluoropyridin-2-yl]-5′-phenyltetrahydro-3′H-spiro[piperidine-4,2′-pyrrolo[2,1-b][1,3]oxazol]-3′-one]",61.1
8,"O=C(c1ccc(F)cc1)N1CCC2(CC1)O[C@@H]1CC[C@@H](c3cc(F)cc(F)c3)N1C2=O [Example 6.70, (5′S,7a′R)-5′-(3,5-difluorophenyl)-1-(4-fluorobenzene-1-carbonyl)tetrahydro-3′H-spiro[piperidine-4,2′-pyrrolo[2,1-b] [1,3]oxazol]-3′-one]",< 25
9,"CC1CC2(CCN1C(=O)c1ncccc1F)O[C@@H]1CC[C@@H](c3cccc(F)c3)N1C2=O (stereo partly drawn) [Example 6.162, (4R,5′S,7a′R)-5′-(3-fluorophenyl)-1-(3-fluoropyridine-2-carbonyl)-2-methyl-tetrahydro-3′H-spiro [piperidine-4,2′-pyrrolo[2,1-b][1,3]oxazol]-3′-one]",38
10,"O=C1N2[C@@H](CC[C@H]2c2ccccc2)OC12CCN(c1cc(-n3ccnc3)ncn1)CC2 [Example 4.171, (5′S,7a′R)-1-[6-(1H-imidazol-1-yl)pyrimidin-4-yl]-5′-phenyltetrahydro-3′H-spiro[piperidine-4,2′-pyrrolo[2,1-b] [1,3]oxazol]-3′-one]",< 25
11,"Cc1nnc(N2CC3(C2)O[C@@H]2CC[C@@H](c4ccccc4F)N2C3=O)o1 [Example 4.273, (5′S,7a′R)-5′-(2-fluorophenyl)-1-(5-methyl-1,3,4-oxadiazol-2-yl)tetrahydro-3′H-spiro[azetidine-3,2′-pyrrolo[2,1-b] [1,3]oxazol]-3′-one]",566
12,"O=C1N2[C@@H](CC[C@H]2c2ccccc2F)OC12CN(c1ccnc(-c3ccc(F)cc3)c1)C2 [Example 4.139, (5′S,7a′R)-5′-(2-fluorophenyl)-1-[2-(4-fluorophenyl)pyridin-4-yl]tetrahydro-3′H-spiro[azetidine-3,2′-pyrrolo[2,1-b] [1,3]oxazol]-3′-one]",< 25
13,"CC(C)(C)OC(=O)c1ccc(N2CCC3(CC2)O[C@@H]2CC[C@@H](c4ccccc4)N2C3=O)nc1 [Example 4.198, tert-butyl 6-[(5′S,7a′R)-3′-oxo-5′-phenyltetrahydro-1H,3′H-spiro[piperidine-4,2′-pyrrolo[2,1-b] [1,3]oxazol]-1-yl]pyridine-3-carboxylate]",249
14,"Cn1cnc(-c2ccc(N3CCC4(CC3)O[C@@H]3CC[C@@H](c5ccccc5)N3C4=O)n3ncnc23)c1 [Example 21.21, (5′S,7a′R)-1-[8-(1-methyl-1H-imidazol-4-yl)[1,2,4]triazolo[1,5-a]pyridin-5-yl]-5′-phenyltetrahydro-3′H-spiro[piperidine-4,2′-pyrrolo[2,1-b][l,3]oxazol]-3′-one]",< 25
15,"COc1cnc(N2CCC3(CC2)O[C@@H]2CC[C@@H](c4cc(F)cc(F)c4)N2C3=O)nc1 [Example 4.64, (5′S,7a′R)-5′-(3,5-difluorophenyl)-1-(5-methoxypyrimidin-2-yl)tetrahydro-3′H-spiro[piperidine-4,2′-pyrrolo[2,1-b] [1,3]oxazol]-3′-one]",80.7
16,"N#Cc1ccc(N2CCC3(CC2)O[C@@H]2CC[C@@H](c4cccc(F)c4)N2C3=O)c(F)c1 [Example 4.53, 3-fluoro-4-[(5′S,7a′R)-5′-(3-fluorophenyl)-3′-oxotetrahydro-1H,3′H-spiro[piperidine-4,2′-pyrrolo[2,1-b] [1,3]oxazol]-1-yl]benzonitrile]",< 25
17,"O=C1N2[C@@H](CC[C@H]2c2ccccc2F)OC12CCN(c1ccnc3ccnn13)CC2 [Example 4.103, (5′S,7a′R)-5′-(2-fluorophenyl)-1-(pyrazolo[1,5-a]pyrimidin-7-yl)tetrahydro-3′H-spiro[piperidine-4,2′-pyrrolo[2,1-b]oxazol]-3′-one]",< 25
18,"CCOC(=O)c1nc(N2CCC3(CC2)O[C@@H]2CC[C@@H](c4cc(F)cc(F)c4)N2C3=O)ncc1F [Example 4.205, ethyl 2-[(5′S,7a′R)-5′-(3,5-difluorophenyl)-3′-oxotetrahydro-1H,3′H-spiro[piperidine-4,2′-pyrrolo[2,1-b] [1,3]oxazol]-1-yl]-5-fluoropyrimidine-4-carboxylate]",63.3
19,"O=C(c1ccccc1OC(F)F)N1CCC2(CC1)O[C@@H]1CC[C@@H](c3cc(F)cc(F)c3)N1C2=O [Example 6.61, (5′S,7a′R)-1-[2-(difluoromethoxy)-benzene-1-carbonyl]-5′-(3,5-difluorophen-yl)tetrahydro-3′H-spiro[piperidine-4,2′-pyrrolo[2,1-b][1,3]-oxazol]-3′-one]",261
20,"O=C(c1cccc(F)c1)N1CCC2(CC1)O[C@@H]1CC[C@@H](c3cccc(F)c3)N1C2=O [Example 6.116, (5′S,7a′R)-1-(3-fluoro-benzene-1-carbonyl)-5′-(3-fluorophenyl)-tetrahydro-3′H-spiro [piperidine-4,2′-pyrrolo[2,1-b][1,3]oxazol]-3′-one]",< 25
21,O=C(c1ccon1)N1CCC2(CC1)O[C@@H]1CC[C@@H](c3cc(F)cc(F)c3)N1C2=O [Example 5.45],31
